Square brackets hold non-standard residues; d marks the D form. Peptide text beside a SMILES is read from it. Oic = O=C(O)[C@@H]1C[C@@H]2CCCC[C@@H]2N1; 1Nal = N[C@@H](Cc1cccc2ccccc12)C(=O)O; 2Nal = N[C@@H](Cc1ccc2ccccc2c1)C(=O)O; His(π-Me) = Cn1cncc1C[C@H](N)C(=O)O; Tic = O=C(O)[C@@H]1Cc2ccccc2CN1; dTic = O=C(O)[C@H]1Cc2ccccc2CN1; dPip = O=C(O)[C@H]1CCCCN1; Orn = NCCC[C@H](N)C(=O)O; Aze = O=C(O)[C@@H]1CCN1
target: T1, CXCR7 (Homo sapiens, UniProt P25106); assay: CXCR7 β-arrestin recruitment assay (PathHunter CHO-CXCR7, agonistic assay); assay type: cell-based; details: CHO CXCR7 β-arrestin cells, agonistic assay, 90 min at 37° C., chemiluminescence; read-out: β-Arrestin EC50
T1 construct: host or cells: CHO (PathHunter CHO-CXCR7 β-arrestin cells)
Method: Lyophilized peptides were weighed on a Microbalance (Mettler MX5) and dissolved in DMSO to a final concentration of 10 mM unless otherwise stated. Stock solutions were kept at +4° C., and protected from light.
2.2 CXCR7 β-Arrestin Recruitment Assay
The PathHunter CHO-CXCR7 (DiscoverX) assay was performed according to the manufacturer's protocol. In brief, CHO CXCR7 β-arrestin cells were seeded at a density of 5000 cells per well in 40 μl of F12 medium in a 96-half volume well black culture plate and incubated overnight at 37° C. in a humidified atmosphere with 5% CO2. The next day, serial dilutions of PEM compounds have been prepared in DMSO and subsequently diluted in HBSS buffer containing 0.1% BSA.
For agonistic assay, 10 μl of compound solution or a solution of stromal cell-derived factor-1 (SDF-1) as positive control was added to the cells with a final DMSO concentration of 1% (v/v). The plate was incubated for 90 min at 37° C. in 5% CO2 incubator with gentle shaking (300 rpm) before addition of 40 ul of detection reagent per well. Reaction was developed 90 min at room temperature in the dark with shaking, and chemiluminescence was measured with a Topcount (Perkin Elmer) luminescence counter.

T1 sequence (P25106 whole entry): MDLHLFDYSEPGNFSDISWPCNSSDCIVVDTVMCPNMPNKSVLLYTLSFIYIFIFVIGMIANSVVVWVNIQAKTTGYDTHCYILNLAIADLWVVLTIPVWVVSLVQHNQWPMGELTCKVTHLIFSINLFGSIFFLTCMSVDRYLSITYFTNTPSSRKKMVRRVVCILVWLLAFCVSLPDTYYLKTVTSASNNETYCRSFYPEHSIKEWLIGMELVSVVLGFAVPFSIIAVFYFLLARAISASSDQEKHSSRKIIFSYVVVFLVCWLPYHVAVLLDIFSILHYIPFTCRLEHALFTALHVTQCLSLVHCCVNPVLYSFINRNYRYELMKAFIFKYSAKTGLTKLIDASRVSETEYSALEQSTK

`CC[C@H](C)[C@@H]1NC(=O)[C@@H]2Cc3ccccc3CN2C(=O)[C@H]2CCCN2C(=O)[C@H](CCCNC(=N)N)NC(=O)[C@H](Cc2c[nH]cn2)NC(=O)[C@@H](Cc2c[nH]c3ccccc23)NC1=O` [compound 34, cyclo(-Ile-^DTrp-His-Arg-^DPro-Tic-)] (cyclo(HR[dP][Tic]I[dW])) and `CC[C@H](C)[C@@H]1NC(=O)[C@@H](Cc2c[nH]cn2)NC(=O)[C@H](Cc2cccc3ccccc23)NC(=O)[C@@H]2Cc3ccccc3CN2C(=O)[C@H]2CCCN2C(=O)[C@H](CCCNC(=N)N)NC1=O` [compound 29, cyclo(-1Nal-^DHis-Ile-Arg-^DPro-Tic-)] (cyclo([1Nal][dH]IR[dP][Tic])) are within error of each other in EC50: 317 ± 360 nM for the first, 347 ± 110 nM for the second.

Going from `N=C(N)NCCC[C@@H]1NC(=O)[C@H](Cc2c[nH]c3ccccc23)NC(=O)[C@@H](Cc2ccccc2)NC(=O)[C@H](Cc2c[nH]c3ccccc23)NC(=O)[C@@H]2C[C@@H]3CCCC[C@@H]3N2C(=O)[C@H]2CCCN2C1=O` [Ex. 26, cyclo(-Trp-^DPhe-Trp-Arg-^DPro-Oic-)] (cyclo([Oic]W[dF]WR[dP])) to `N=C(N)NCCC[C@@H]1NC(=O)[C@H](Cc2c[nH]c3ccccc23)NC(=O)[C@@H](Cc2ccccc2)NC(=O)[C@H](Cc2c[nH]c3ccccc23)NC(=O)[C@@H]2CCCN2C(=O)[C@H]2CCCCN2C1=O` [compound 41, cyclo(-Trp-^DPhe-Trp-Arg-^DPip-Pro-)] (cyclo(PW[dF]WR[dPip])), the EC50 rises from 0.8 ± 0.5 nM to 78.7 ± 0.9 nM (98-fold). The first is the more potent here.

First: CC[C@H](C)[C@@H]1NC(=O)[C@@H](CCCNC(=N)N)NC(=O)[C@H](Cc2c[nH]c3ccccc23)NC(=O)[C@@H]2CCN2C(=O)[C@H]2CCCN2C(=O)[C@H](CCCNC(=N)N)NC1=O [compound 50, cyclo(-Trp-^DArg-Ile-Arg-^DPro-Azt-)] (cyclo([Aze]W[dR]IR[dP]))
Second: CC[C@H](C)[C@@H]1NC(=O)[C@@H](Cc2c[nH]cn2)NC(=O)[C@H](Cc2c[nH]c3ccccc23)NC(=O)[C@@H]2CCN2C(=O)[C@H]2CCCN2C(=O)[C@H](CCCNC(=N)N)NC1=O [compound 47, cyclo(-Trp-^DHis-Ile-Arg-^DPro-Azt-)] (cyclo([Aze]W[dH]IR[dP]))
The EC50 of the first is 7.2-fold lower: 47.7 ± 21.9 nM for the first, 344.5 ± 0.6 nM for the second. The first is the more potent here.

First: CC[C@H](C)[C@@H]1NC(=O)[C@@H](CCCNC(=N)N)NC(=O)[C@H]([C@@H](C)CC)NC(=O)[C@@H]2Cc3ccccc3CN2C(=O)[C@H]2CCCN2C(=O)[C@H](CCCNC(=N)N)NC1=O [compound 33, cyclo(-Ile-^DArg-Ile-Arg-^DPro-Tic-)] (cyclo(IR[dP][Tic]I[dR]))
Second: N=C(N)NCCC[C@@H]1NC(=O)[C@@H]2Cc3ccccc3CN2C(=O)[C@H]2CCCN2C(=O)[C@H](CCCNC(=N)N)NC(=O)[C@H](Cc2c[nH]c3ccccc23)NC(=O)[C@@H](Cc2ccccc2)NC1=O [compound 6, cyclo(-Arg-^DPhe-Trp-Arg-^DPro-Tic-)] (cyclo(R[dF]WR[dP][Tic]))
The EC50 of the first is 2.7-fold higher: 34.3 ± 3.6 nM for the first, 12.8 ± 4.5 nM for the second.

Going from `N=C(N)NCCC[C@@H]1NC(=O)[C@H](Cc2c[nH]c3ccccc23)NC(=O)[C@@H](Cc2ccccc2)NC(=O)[C@H](Cc2cccc3ccccc23)NC(=O)[C@@H]2Cc3ccccc3CN2C(=O)[C@H]2CCCN2C1=O` [compound 7, cyclo(-1Nal-^DPhe-Trp-Arg-^DPro-Tic-)] (cyclo([1Nal][dF]WR[dP][Tic])) to `N=C(N)NCCC[C@@H]1NC(=O)[C@H](Cc2c[nH]c3ccccc23)NC(=O)[C@@H](Cc2ccccc2)NC(=O)[C@H](Cc2ccc3ccccc3c2)NC(=O)[C@@H]2Cc3ccccc3CN2C(=O)[C@H]2CCCN2C1=O` [compound 8, cyclo(-2Nal-^DPhe-Trp-Arg-^DPro-Tic-)] (cyclo([2Nal][dF]WR[dP][Tic])), the EC50 falls from 61.6 ± 1.6 nM to 8.9 ± 5.8 nM (6.9-fold). The second is the more potent here.

`NCCCC[C@@H]1NC(=O)[C@H](Cc2c[nH]c3ccccc23)NC(=O)[C@@H](Cc2ccccc2)NC(=O)[C@H](Cc2c[nH]c3ccccc23)NC(=O)[C@@H]2Cc3ccccc3CN2C(=O)[C@H]2CCCN2C1=O` [compound 20, cyclo(-Trp-^DPhe-Trp-Lys-^DPro-Tic-)] (cyclo(K[dP][Tic]W[dF]W)) and `NCCC[C@@H]1NC(=O)[C@H](Cc2c[nH]c3ccccc23)NC(=O)[C@@H](Cc2ccccc2)NC(=O)[C@H](Cc2c[nH]c3ccccc23)NC(=O)[C@@H]2Cc3ccccc3CN2C(=O)[C@H]2CCCN2C1=O` [compound 21, cyclo(-Trp-^DPhe-Trp-Orn-^DPro-Tic-)] (cyclo([Orn][dP][Tic]W[dF]W)) are within error of each other in EC50: 16.5 ± 8 nM for the first, 12.1 nM for the second.

`CC[C@H](C)[C@@H]1NC(=O)[C@@H](Cc2c[nH]cn2)NC(=O)[C@H](Cc2cccc3ccccc23)NC(=O)[C@@H]2CCN2C(=O)[C@H]2CCCN2C(=O)[C@H](CCCNC(=N)N)NC1=O` [Ex. 42, cyclo(-1Nal-^DHis-Ile-Arg-^DPro-Azt-)] (cyclo([1Nal][dH]IR[dP][Aze])) and `CC[C@H](C)[C@@H]1NC(=O)[C@@H](Cc2ccccc2)NC(=O)[C@H](Cc2c[nH]c3ccccc23)NC(=O)[C@@H]2Cc3ccccc3CN2C(=O)[C@H]2CCCN2C(=O)[C@H](CCCNC(=N)N)NC1=O` [compound 18, cyclo(-Trp-^DPhe-Ile-Arg-^DPro-Tic-)] (cyclo(IR[dP][Tic]W[dF])) are within error of each other in EC50: 85.7 ± 76.6 nM for the first, 148 ± 96.8 nM for the second.

First: N=C(N)NCCC[C@@H]1NC(=O)[C@H](Cc2c[nH]c3ccccc23)NC(=O)[C@@H](Cc2ccccc2)NC(=O)[C@H](Cc2c[nH]c3ccccc23)NC(=O)[C@@H]2CCCN2C(=O)[C@H]2Cc3ccccc3CN2C1=O [Ex. 40, cyclo(-Trp-^DPhe-Trp-Arg-^DTic-Pro-)] (cyclo(PW[dF]WR[dTic]))
Second: N=C(N)NCCC[C@@H]1NC(=O)[C@H](Cc2c[nH]c3ccccc23)NC(=O)[C@@H](Cc2c[nH]cn2)NC(=O)[C@H](Cc2c[nH]c3ccccc23)NC(=O)[C@@H]2Cc3ccccc3CN2C(=O)[C@H]2CCCN2C1=O [compound 11, cyclo(-Trp-^DHis-Trp-Arg-^DPro-Tic-)] (cyclo(R[dP][Tic]W[dH]W))
The EC50 of the first is 2.4-fold lower: 83.6 ± 22.7 nM for the first, 204 ± 8.1 nM for the second. The first is the more potent here.

`N=C(N)NCCC[C@@H]1NC(=O)[C@H](Cc2c[nH]c3ccccc23)NC(=O)[C@@H](CCCNC(=N)N)NC(=O)[C@H](Cc2cccc3ccccc23)NC(=O)[C@@H]2CCN2C(=O)[C@H]2CCCN2C1=O` [compound 44, cyclo(-1Nal-^DArg-Trp-Arg-^DPro-Azt-)] (cyclo([1Nal][dR]WR[dP][Aze])) and `N=C(N)NCCC[C@@H]1NC(=O)[C@H](Cc2c[nH]c3ccccc23)NC(=O)[C@@H](CCCNC(=N)N)NC(=O)[C@H](Cc2c[nH]c3ccccc23)NC(=O)[C@@H]2CCN2C(=O)[C@H]2CCCN2C1=O` [compound 51, cyclo(-Trp-^DArg-Trp-Arg-^DPro-Azt-)] (cyclo([Aze]W[dR]WR[dP])) are within error of each other in EC50: 146 ± 81.8 nM for the first, 170 ± 22.5 nM for the second.

Compared with `C[C@@H]1NC(=O)[C@@H]2Cc3ccccc3CN2C(=O)[C@H]2CCCN2C(=O)[C@H](CCCNC(=N)N)NC(=O)[C@H](Cc2c[nH]c3ccccc23)NC(=O)[C@@H](Cc2ccccc2)NC1=O` [Ex. 1, cyclo(-Ala-^DPhe-Trp-Arg-^DPro-Tic-)] (cyclo(A[dF]WR[dP][Tic])), `Cn1cncc1C[C@@H]1NC(=O)[C@@H]2Cc3ccccc3CN2C(=O)[C@H]2CCCN2C(=O)[C@H](CCCNC(=N)N)NC(=O)[C@H](Cc2c[nH]c3ccccc23)NC(=O)[C@@H](Cc2ccccc2)NC1=O` [Ex. 4, cyclo(-His(Me)-^DPhe-Trp-Arg-^DPro-Tic-)] (cyclo([His(π-Me)][dF]WR[dP][Tic])) is 5-fold lower in EC50: 163 ± 40.9 nM for the first, 32.5 ± 3.9 nM for the second.

`N=C(N)NCCC[C@@H]1NC(=O)[C@@H](Cc2ccccc2)NC(=O)[C@H](Cc2c[nH]c3ccccc23)NC(=O)[C@@H]2Cc3ccccc3CN2C(=O)[C@H]2CCCN2C(=O)[C@H](CCCNC(=N)N)NC1=O` [compound 19, cyclo(-Trp-^DPhe-Arg-Arg-^DPro-Tic-)] (cyclo(RR[dP][Tic]W[dF])) and `N=C(N)NCCC[C@@H]1NC(=O)[C@H](Cc2c[nH]c3ccccc23)NC(=O)[C@@H](CCCNC(=N)N)NC(=O)[C@H](Cc2c[nH]c3ccccc23)NC(=O)[C@@H]2Cc3ccccc3CN2C(=O)[C@H]2CCCN2C1=O` [compound 13, cyclo(-Trp-^DArg-Trp-Arg-^DPro-Tic-)] (cyclo(R[dP][Tic]W[dR]W)) are within error of each other in EC50: 178 ± 102 nM for the first, 128 ± 32.5 nM for the second.

First: N=C(N)NCCC[C@@H]1NC(=O)[C@H](Cc2c[nH]c3ccccc23)NC(=O)[C@@H](CCCNC(=N)N)NC(=O)[C@H](Cc2cccc3ccccc23)NC(=O)[C@@H]2Cc3ccccc3CN2C(=O)[C@H]2CCCN2C1=O [compound 28, cyclo(-1Nal-^DArg-Trp-Arg-^DPro-Tic-)] (cyclo([1Nal][dR]WR[dP][Tic]))
Second: N=C(N)NCCC[C@@H]1NC(=O)[C@H](Cc2c[nH]c3ccccc23)NC(=O)[C@@H](Cc2ccccc2)NC(=O)[C@H](Cc2c[nH]cn2)NC(=O)[C@@H]2Cc3ccccc3CN2C(=O)[C@H]2CCCN2C1=O [compound 3, cyclo(-His-^DPhe-Trp-Arg-^DPro-Tic-)] (cyclo(H[dF]WR[dP][Tic]))
The EC50 of the first is 8.7-fold higher: 280 ± 115 nM for the first, 32.1 ± 3.9 nM for the second. The second is the more potent here.

Going from `O=C1N[C@@H](Cc2c[nH]cn2)C(=O)N2CCC[C@@H]2C(=O)N2Cc3ccccc3C[C@H]2C(=O)N[C@@H](Cc2c[nH]c3ccccc23)C(=O)N[C@H](Cc2ccccc2)C(=O)N[C@H]1Cc1c[nH]c2ccccc12` [Ex. 23, cyclo(-Trp-^DPhe-Trp-His-^DPro-Tic-)] (cyclo(H[dP][Tic]W[dF]W)) to `O=C1N[C@@H](Cc2ccc(O)cc2)C(=O)N2CCC[C@@H]2C(=O)N2Cc3ccccc3C[C@H]2C(=O)N[C@@H](Cc2c[nH]c3ccccc23)C(=O)N[C@H](Cc2ccccc2)C(=O)N[C@H]1Cc1c[nH]c2ccccc12` [compound 24, cyclo(-Trp-^DPhe-Trp-Tyr-^DPro-Tic-)] (cyclo([Tic]W[dF]WY[dP])), the EC50 rises from 18.3 ± 17.6 nM to 94.5 ± 54.1 nM (5.2-fold).

Reference: patent US8629112B2, “Template-fixed peptidomimetics with CXCR7 modulating activity” (priority 2010, dated 2014)
